Data published in US7728040B1, “Polyamine conjugates as selective NMDA inhibitors and anti-cancer drugs” (University of Central Florids Research Foundation, Inc., priority 2002, dated 2010).
Counter-ions that a name gives are not always drawn.

Columns and labels:
[1] = target: NR1/NR2A NMDA receptor (Homo sapiens, UniProt Q05586+Q12879); test: Inhibition of NMDA receptor NR1/NR2A function; assay type: cell-based
[2] = system: CHO cells; test: Cytotoxicity in CHO cells (active polyamine transporter); assay type: cell-based, Chinese hamster; details: for IC50: Cricetulus griseus, CHO, active polyamine transporter, read-out: CHO IC50; for CHO-MG/CHO IC50 ratio: selectivity for cells with active polyamine transporter
[3] = system: CHO-MG cells; test: Cytotoxicity in CHO-MG cells (polyamine-transport deficient); assay type: cell-based, Chinese hamster; details: Cricetulus griseus, polyamine-transport deficient line, read-out: CHO-MG IC50
[4] = system: L1210 cells; test: Cytotoxicity in L1210 cells; assay type: cell-based; details: Mus musculus; L1210 cells, no DFMO; read-out: L1210 IC50
[5] = system: polyamine transporter; test: Ki, affinity for the polyamine transporter in L1210 cells; assay type: binding, mouse
Method: Biological Evaluation. Three cell lines were chosen for bioassay. L1210 (mouse leukemia) cells were selected for comparison with the published IC50 and Ki values determined for a variety of polyamine substrates. In this regard both Ki and IC50 values were measured in this line for comparison purposes. Chinese hamster ovary (CHO) cells were chosen along with a mutant cell line (CHO-MG) in order to comment on polyamine transporter affinity and cell selectivity. The CHO-MG cell line is polyamine-transport deficient and was isolated after chronic selection for growth resistance to methylglyoxalbis (guanylhydrazone). For the purposes of this study, the CHO-MG cell line represents cells with limited polyamine transport activity. In contrast, the parent CHO cell line illustrates cell types with active polyamine transport. Comparison of efficacy in these two lines provided an important screen to detect conjugate delivery via the polyamine transporter, PAT. For example, a conjugate with high utilization of the transporter would be very toxic to CHO cells, but less so to CHO-MG cells. Therefore, IC50 determination in these two CHO lines provided a relative ranking of delivery via the PAT.

[6] = Metabolic de-alkylation to homospermidine in treated cells; assay type: in vitro ADME; details: cells treated with compound
Excerpt: N-Alkylpolyamines can be broken down into their de-alkylated components by cellular metabolic pathways. For example, a N-alkyl-4,4-triamine ([…]2, where R is alkyl) can be converted into homospermidine, H2N(CH2)4NH(CH2)4NH2.

[7] = system: L1210 cells + DFMO; test: Cytotoxicity in L1210 cells pretreated with DFMO; assay type: cell-based, mouse; details: for IC50: Mus musculus, L1210 cells pretreated with DFMO, read-out: L1210 + DFMO IC50; for L1210/(L1210 + DFMO) IC50 ratio: fold more toxic in the presence of DFMO

Chain of NR1/NR2A NMDA receptor (Q12879 23-1464, other chains not shown): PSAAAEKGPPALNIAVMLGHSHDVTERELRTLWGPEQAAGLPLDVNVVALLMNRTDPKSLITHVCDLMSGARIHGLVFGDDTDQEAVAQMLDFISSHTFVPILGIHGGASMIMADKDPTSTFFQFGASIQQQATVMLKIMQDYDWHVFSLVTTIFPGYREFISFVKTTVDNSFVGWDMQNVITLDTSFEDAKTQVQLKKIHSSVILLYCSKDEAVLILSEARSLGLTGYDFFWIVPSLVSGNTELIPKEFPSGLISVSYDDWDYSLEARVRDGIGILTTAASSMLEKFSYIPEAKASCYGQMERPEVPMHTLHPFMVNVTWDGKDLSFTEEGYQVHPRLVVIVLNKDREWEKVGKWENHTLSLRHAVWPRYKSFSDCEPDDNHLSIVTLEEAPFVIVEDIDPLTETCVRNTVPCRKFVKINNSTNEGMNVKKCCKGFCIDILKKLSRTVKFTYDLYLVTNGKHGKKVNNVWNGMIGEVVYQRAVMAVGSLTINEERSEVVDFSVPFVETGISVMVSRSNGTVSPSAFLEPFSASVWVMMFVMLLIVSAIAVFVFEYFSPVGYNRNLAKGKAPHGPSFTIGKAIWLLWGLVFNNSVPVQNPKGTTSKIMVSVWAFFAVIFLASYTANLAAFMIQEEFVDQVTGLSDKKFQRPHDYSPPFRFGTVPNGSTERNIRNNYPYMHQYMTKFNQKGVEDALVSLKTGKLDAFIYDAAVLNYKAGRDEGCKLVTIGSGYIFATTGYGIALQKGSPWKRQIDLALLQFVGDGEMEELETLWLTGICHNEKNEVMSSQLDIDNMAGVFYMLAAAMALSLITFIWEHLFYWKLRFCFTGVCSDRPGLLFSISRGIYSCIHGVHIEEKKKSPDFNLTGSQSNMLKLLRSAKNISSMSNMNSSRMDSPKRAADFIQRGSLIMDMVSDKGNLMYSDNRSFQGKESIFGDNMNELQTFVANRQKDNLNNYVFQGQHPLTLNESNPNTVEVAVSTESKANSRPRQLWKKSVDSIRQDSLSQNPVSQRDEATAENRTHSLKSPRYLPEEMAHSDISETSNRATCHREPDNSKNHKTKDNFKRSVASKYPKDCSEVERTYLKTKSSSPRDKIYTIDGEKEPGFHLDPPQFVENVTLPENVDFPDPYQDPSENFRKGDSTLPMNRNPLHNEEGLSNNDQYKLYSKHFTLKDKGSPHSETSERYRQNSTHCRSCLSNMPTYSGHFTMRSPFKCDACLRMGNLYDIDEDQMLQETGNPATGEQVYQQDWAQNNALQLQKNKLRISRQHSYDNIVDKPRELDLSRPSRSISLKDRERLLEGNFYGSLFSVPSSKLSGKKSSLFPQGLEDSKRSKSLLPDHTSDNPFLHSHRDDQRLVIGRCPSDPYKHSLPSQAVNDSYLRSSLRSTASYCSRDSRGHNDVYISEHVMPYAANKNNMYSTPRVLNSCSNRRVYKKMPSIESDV

| formation of homospermidine in treated cells (de-alkylation) [6] | IC50 [1] | SMILES | IC50 for NR1/NR2A [1] | NMDA receptor (NR1A/NR2A) function at the highest dose [1] | IC50 [2] | CHO-MG/CHO IC50 ratio ([2]; trihydrochloride) | IC50 [3] | IC50 [4] | Ki [5] | IC50 [7] | CHO-MG/CHO IC50 ratio [2] | L1210/(L1210 + DFMO) IC50 ratio [7] |
| --- | --- | --- | --- | --- | --- | --- | --- | --- | --- | --- | --- | --- |
|  |  | c1ccc2cc3ccccc3cc2c1 [Anthracene] | no effect | greater than 85% |  |  |  |  |  |  |  |  |
| did not form homospermidine |  | Cl.Cl.Cl.NCCCCN(CCCCN)Cc1c2ccccc2cc2ccccc12 [Compound 8e, N-(4-Amino-butyl)-N-anthracen-9-ylmethyl-butane-1,4-diamine, trihydrochloride] |  |  | 0.45 µM | 148 | 66.7 µM | 0.3 µM | 1800 nM | 150 nM |  |  |
|  | 519 µM | NCCCNCCCCNCCCN [Spermine] |  |  |  |  |  |  |  |  |  |  |
|  |  | Cl.Cl.Cl.NCCCCNCCCNCc1c2ccccc2cc2ccccc12 [Compound 8c, N^1-{3-[(Anthracen-9-ylmethyl)-amino]-propyl}-butane-1,4-diamine, trihydrochloride] |  |  | 2.5 µM |  | 8.8 µM | 0.7 µM | 2500 nM | 300 nM | 3.5 | 2.3 |
|  |  | NCCCCNCCCNCCCNCc1c2ccccc2cc2ccccc12 [Compound 13a, N^1-{3-[3-(Anthracen-9-ylmethyl)-amino]-propylamino}-butane-1,4-diamine Tetrahydrochloride] |  |  | 44 µM |  | 41.5 µM | 21.8 µM | 107 nM | 21900 nM | 0.9 | 1 |
|  |  | Cl.Cl.Cl.Cl.NCCCCNCCCCN(CCCCN)Cc1c2ccccc2cc2ccccc12 [Compound 13f, N-[4-(4-Amino-butylamino)-butyl]-N-anthracen-9-ylmethyl-butane-1,4-diamine Tetrahydrochloride] |  |  | 10.6 µM |  | 33.2 µM | 7.5 µM | 51 nM | 1600 nM |  | 4.7 |
